{"source": "patent US7175872B2", "about": "“Pyridinium-Betain compounds for use as taste modulators” (Nestec S.A., priority 2002, dated 2007)", "format_in_all_cases": "in vivo", "key": {"salty taste of NaCl [1]": {"tested_on": "salty taste of NaCl", "experiment": "Salt taste detection threshold of NaCl/Pyridinium-Betaine mixtures (triangle test, sensory panel)", "conditions": "mixture with NaCl, pH 7.0", "method": "• Sensory panel training: […] Sensory analyses were performed in a sensory panel room at 22-25° C. on three different sessions. • Taste thresholds: The taste thresholds of the tastants or mixtures containing basic tastants plus Pyridinium-Betains were determined in a triangle test using Evian® mineral water as the solvent at a defined pH ([…] and H.-D. Belitz, Z. Lebensm. Unters. Forsch. 1975, 159, 65-72). The samples (3 mL) were presented in order of increasing concentrations (serial 1:1 dilutions). The threshold values evaluated in two different sessions were averaged. […] The taste intensities of aqueous (Evian®) solutions containing a basic tastant, such as glucose and MSG, for example, in constant concentrations and the compounds of the general formula (A), for example […], in various concentrations were compared with those of a solution containing the basic tastant only. […] The relative taste strength (taste enhancing factor) of a mixture containing the basic […] was related to the basic tastants glucose, MSG, or other tastants, respectively, as standard substances, and was determined as the ratio of the concentrations c of iso-intensely tasting solutions of the basic tastant, such as glucose (glc), and the mixture containing tastant plus Pyridinium-Betain, […])=[…] […] This taste enhancing effect is illustrated in examples."}, "beef taste recombinate": {"tested_on": "beef taste recombinate", "experiment": "Effect of Alapyridaine on the taste profile of a beef broth taste recombinate", "conditions": "pH 5", "excerpt": "The beef taste recombinate (K. Shima et al., J. Agric. Food. Chem. 1998, 46, 1465–1468) consisting of 16 amino acids, 4 sugars, three 5′-nucleotides, 3 carbonic acids, 3 salts, and 4 other compounds was used as a sample having a basic brothy taste at pH 5, i.e. (in mg/L water) threonine (68), serine (38), MSG (64), proline (16), glycine (56), alanine (192), valine (34), methionine (20), isoleucine (16), leucine (28), tyrosine (38), phenylalanine (26), lysine hydrochloride (44), histidine (38), arginine (32), taurine (248), ribose (4), mannose (8), fructose (20), glucose (40), IMP.2Na.5H20 (424), GMP.2Na7H20 (80), AMP (60), pyroglutamic acid (1296), lactic acid (3567), succinic acid (98), NaCl (854), KCl (3940), MgCl2.6H20 (1104), CaCl2.2H20 (14), H3PO4, carnosine (912), creatine (1106), and creatinine (572) were dissolved in 1 L of water, and the pH was adjusted to 5.0.\nThe sensory panel was asked to score the given taste qualities of the biomimetic beef taste recombinate on a scale from 0 (not detectable) to 5 (strong). To study the influence of Alapyridaine on the taste qualities of that recombinate, a triangle test was performed with two glass vials containing the pure beef taste recombinate, and one glass vial containing the beef taste recombinate plus a known amount of Alapyridaine. […]"}, "sweet taste of glucose": {"tested_on": "sweet taste of glucose", "experiment": "Sweet taste detection threshold of glucose/Pyridinium-Betaine mixtures (triangle test, sensory panel)", "conditions": "equimolar mixture with glucose; for Threshold decrease: vs glucose in water 50.0 mmol/L", "method": "• Sensory panel training: […] Sensory analyses were performed in a sensory panel room at 22-25° C. on three different sessions. • Taste thresholds: The taste thresholds of the tastants or mixtures containing basic tastants plus Pyridinium-Betains were determined in a triangle test using Evian® mineral water as the solvent at a defined pH ([…] and H.-D. Belitz, Z. Lebensm. Unters. Forsch. 1975, 159, 65-72). The samples (3 mL) were presented in order of increasing concentrations (serial 1:1 dilutions). The threshold values evaluated in two different sessions were averaged. […] The taste intensities of aqueous (Evian®) solutions containing a basic tastant, such as glucose and MSG, for example, in constant concentrations and the compounds of the general formula (A), for example […], in various concentrations were compared with those of a solution containing the basic tastant only. To achieve this, triangle tests were performed with two glass vials containing the basic tastant in constant concentrations, and one glass vial containing a stepwise 1:1-diluted mixture of basic […]. […] The relative taste strength (taste enhancing factor) of a mixture containing the basic […] was related to the basic tastants glucose, MSG, or other tastants, respectively, as standard substances, and was determined as the ratio of the concentrations c of iso-intensely tasting solutions of the basic tastant, such as glucose (glc), and the mixture containing tastant plus Pyridinium-Betain, […])=[…] This taste enhancing effect is illustrated in examples. The sweet taste thresholds of equimolar mixtures of sweet tasting compounds and various Pyridinium-Betaines were determined by a triangle test using EVIAN® mineral water as the solvent. The sensorial evaluations were performed at different pH values. The equimolar mixture of […] and sucrose at pH 7.0 was evaluated with a 4-fold lower sweet threshold concentration than pure sucrose (Table 1). […] is able to reduce the sweet threshold of glucose 16-fold at pH 7.0 and pH 9.0, whereas at pH 5.0 a gain the sweet taste perception […] (Table 2). […] Using the dipeptide derivative (S)-[…] as a taste-enhancer leads to a 16-fold threshold reduction compared to glucose."}, "salty taste of NaCl [2]": {"tested_on": "salty taste of NaCl", "experiment": "Salt-intensity ranking of NaCl/Pyridinium-Betaine mixtures by sensory panel", "conditions": "20 mmol/L each, pH 7.0; scale 0 (not salty) to 5 (very salty), reference NaCl-solution ranked as 1", "excerpt": "The salt-intensities of various NaCl/Pyridinium-Betaine mixtures (20 mmol/L each) were compared to a 20 mmol/L NaCl standard solution. The sensory panel was asked to rank the salt-intensities of these solutions on a scale from 0 (not salty) to 5 (very salty), while the reference NaCl-solution was ranked as 1. As listed in Table 6, the most intense salty taste was found in the solution containing NaCl and Alapyridaine, as well as in the triple mixture with L-arginine. A slight impact was found for Argpyridaine and L-arginine."}}, "note": "Counter-ions that a name gives are not always drawn."}
{"smiles": "CC(C(=O)[O-])[n+]1cc(O)ccc1CO", "note": "(stereo not drawn) [Alapyridaine, N-(1-carboxyethyl)-3-hydroxy-6-hydroxymethyl-pyridinium inner salt]", "values": [{"measurement": "Salt detection threshold", "setting": "salty taste of NaCl [1]", "result": 2.0, "unit": "mmol/kg water"}, {"measurement": "Taste quality", "setting": "salty taste of NaCl [1]", "result": "salty"}, {"measurement": "Threshold decrease", "setting": "salty taste of NaCl [1]; vs NaCl in water 10.0 mmol/L", "result": 5.0}, {"measurement": "effect on taste profile of beef taste recombinate", "setting": "beef taste recombinate; 0.5 mg/L Alapyridaine added", "result": "increased the umami character and decreased the sour note"}, {"measurement": "effect on taste profile of beef taste recombinate", "setting": "beef taste recombinate; 5 mg/L Alapyridaine added", "result": "more intense umami, sweet and salty taste and a reduced sourness"}, {"measurement": "Sweet detection threshold", "setting": "sweet taste of glucose; pH 5.0", "result": 6.0, "unit": "mmol/kg water"}, {"measurement": "Taste quality", "setting": "sweet taste of glucose; pH 5.0", "result": "sweet/"}, {"measurement": "Threshold decrease", "setting": "sweet taste of glucose; pH 5.0", "result": 8.0}, {"measurement": "Sweet detection threshold", "setting": "sweet taste of glucose; pH 7.0", "result": 3.0, "unit": "mmol/kg water"}, {"measurement": "Taste quality", "setting": "sweet taste of glucose; pH 7.0", "result": "sweet"}, {"measurement": "Threshold decrease", "setting": "sweet taste of glucose; pH 7.0", "result": 16}, {"measurement": "Sweet detection threshold", "setting": "sweet taste of glucose; pH 9.0", "result": 3.0, "unit": "mmol/kg water"}, {"measurement": "Taste quality", "setting": "sweet taste of glucose; pH 9.0", "result": "sweet"}, {"measurement": "Threshold decrease", "setting": "sweet taste of glucose; pH 9.0", "result": 16}, {"measurement": "Salt-intensity", "setting": "salty taste of NaCl [2]", "result": 0.0}]}
